# Assay results as given in US20220289685A1, “ANTIMALARIAL HEXAHYDROPYRIMIDINE ANALOGUES” (UCB BIOPHARMA SRL, priority 2019, published 2022).
# pIC50: −log10 of the molar value. Structures can show the parent of a compound that is named as a salt.
# Tested on: Plasmodium falciparum 3D7 strain
# Experiment: P. falciparum 3D7 asexual blood stage assay (SYBR green readout)
# Assay type: cell-based
# Details: Plasmodium falciparum, 3D7, Erythrocyte, 72 h
# Method: Asexual Blood Stage Assay
# The assay used to measure the effect of test compounds on a bloodstream stage of Plasmodium falciparum: 3D7 strain employs SYBR green as the readout. This is a dye that binds to double stranded deoxyribonucleic acid (DNA) with a resulting increase in fluorescence, allowing detection of P. falciparum DNA in infected erythrocytes, and thereby providing a measure of parasite growth and propagation.
# P. falciparum Culture Maintenance
# Erythrocytes (A+ blood) were prepared for both parasite culture and assay by washing 4 times with incomplete media (15.9 g RPMI 1640 (25 mM HEPES, L-glutamine), 1 g NaHCO3, 2 g glucose, 400 μL gentacin (500 mg/mL), 2 mL hypoxanthine solution (13.6 g/L in 0.1M NaOH pH 7.3) in 1 litre of media). The cells were centrifuged at 1800 g for 5 minutes, before decanting the supernatant and re-suspending in fresh incomplete media. On the final wash, the cells were re-suspended in complete media (incomplete media with 5 g/L AlbumaxII), and centrifuged at 1800 g for 3 minutes. This cell sediment was treated as 100% haematocrit.
# P. falciparum 3D7 was cultured in erythrocytes at 5% haematocrit in complete media at 37° C. (1% O2, 3% CO2, balance N2). Cultures were split on a weekly basis to achieve a 1% parasitaemia in erythrocites at 5% haematocrit in fresh media. Culture media is replaced by fresh media every other day (2 times during the week).
# On day 1, test compounds were added to assay plates using Echo dispensing technology ([…] and 20 points titration). 50 nL of each compound dilution was added to 50 μL of culture (5% haematocrit, 0.5% parasitaemia) and incubated for 72 h at 37° C. (1% O2, 3% CO2, balance N2). Final concentrations of test compounds ranged from 50,000 nM to 15 nM, in […].
# On day 4, 10 μL SYBR green (Invitrogen S7563 supplied as 10,000× concentrate in DMSO) pre-diluted to 3× concentrate with Lysis buffer (20 mM Tris pH 7.9, 5% EDTA, 0.16% w/v, 1.6% TX100 v/v) was added to the cultures and incubated in the dark, overnight, at room temperature.
# On day 5, fluorescent signal was measured using a BioTek plate reader (excitation 485 nm, emission 528 nm). All data were processed using IDBS ActivityBase. Raw data were converted into percent inhibition through linear regression by setting the high inhibition control (mefloquine) as 100% and the no inhibition control (DMSO) as 0%. Quality control criteria for passing plates were as follows: Z′>0.5, S:B>3, 30% CV(no inhibition control)<15. The formula used to calculate Z′ is: […]
# All EC50 curve fitting was undertaken using the following bi-phasic two site dose response using XLfit model 300 (IDBS):
# where A=100 minus the top of the upper curve 1 and the bottom of lower curve; B=Hill slope; log(C)=IC50 concentration at lower site; log(D)=IC50 concentration at upper site; x=inhibitor concentration; and y=% inhibition.
row,Structure (SMILES),pIC50
1,"C[C@@H]1C[C@H](N2C(=N)N[C@](C)(c3cccc(NC(=O)c4cccc(C#N)n4)c3Cl)CC2=O)CCO1 (relative stereo) [Example 72, N-(2-Chloro-3-{(4S)-2-imino-4-methyl-1-[(2R*,4R*)-2-methyl-tetrahydropyran-4-yl]-6-oxo-hexahydropyrimidin-4-yl}phenyl)-6-cyanopyridine-2-carboxamide hydrochloride]",7.85
2,"Cc1ccnc(C(=O)Nc2cccc([C@]3(C)CC(=O)N([C@@H]4CCO[C@H](C)C4)C(=N)N3)c2Cl)n1 (relative stereo) [Example 78, N-(2-Chloro-3-{(4S)-2-imino-4-methyl-1-[(2R*,4R*)-2-methyl-tetrahydropyran-4-yl]-6-oxo-hexahydropyrimidin-4-yl}phenyl)-4-methylpyrimidine-2-carboxamide hydrochloride]",7.57
3,"C[C@@H]1C[C@H](N2C(=N)N[C@](C)(c3cccc(NC(=O)c4cncnc4)c3Cl)CC2=O)CCO1 (relative stereo) [Example 38, N-(2-Chloro-3-{(4S)-2-imino-4-methyl-1-[(2R*,4R*)-2-methyl-tetrahydropyran-4-yl]-6-oxo-hexahydropyrimidin-4-yl]phenyl)-pyrimidine-5-carboxamide trifluoroacetic acid salt]",6.96
4,"C[C@@H]1C[C@H](N2C(=N)N[C@](C)(c3cccc(NC(=O)c4ccncc4C(F)(F)F)c3Cl)CC2=O)CCO1 (relative stereo) [Example 89, N-(2-Chloro-3-{(4S)-2-imino-4-methyl-1-[(2R*,4R*)-2-methyl-tetrahydropyran-4-yl]-6-oxo-hexahydropyrimidin-4-yl}phenyl)-3-(trifluoromethyl)pyridine-4-carboxamide trifluoroacetic acid salt]",6.43
5,"C[C@@H]1C[C@H](N2C(=N)N[C@](C)(c3cccc(NC(=O)c4cccc(C#N)c4F)c3Cl)CC2=O)CCO1 (relative stereo) [Example 73, N-(2-Chloro-3-{(4S)-2-imino-4-methyl-1-[(2R*,4R*)-2-methyl-tetrahydropyran-4-yl]-6-oxo-hexahydropyrimidin-4-yl}phenyl)-3-cyano-2-fluorobenzamide hydrochloride]",8.22
6,"C[C@@H]1C[C@H](N2C(=N)N[C@](C)(c3cccc(NC(=O)c4cccc(C#N)c4)c3Cl)CC2=O)C[C@H](C)O1 (relative stereo) [Example 24, N-(2-Chloro-3-{(4S)-1-[(2S*,6R*)-2,6-dimethyltetrahydropyran-4-yl]-2-imino-4-methyl-6-oxohexahydro-pyrimidin-4-yl]phenyl)-3-cyano-benzamide hydrochloride]",7.55
7,"C[C@@H]1C[C@H](N2C(=N)N[C@](C)(c3cccc(NC(=O)c4cn(C)c5ccccc45)c3Cl)CC2=O)CCO1 (relative stereo) [Example 27, N-(2-Chloro-3-{(4S)-2-imino-4-methyl-1-[(2R*,4R*)-2-methyl-tetrahydropyran-4-yl]-6-oxo-hexahydropyrimidin-4-yl}phenyl)-1-methylindole-3-carboxamide trifluoroacetic acid salt]",7.54
8,"C[C@@H]1C[C@H](N2C(=N)N[C@](C)(c3cccc(NC(=O)c4ccncn4)c3Cl)CC2=O)CCO1 (relative stereo) [Example 16, N-(2-Chloro-3-{(4S)-2-imino-4-methyl-1-[(2R*,4R*)-2-methyl-tetrahydropyran-4-yl]-6-oxo-hexahydropyrimidin-4-yl}phenyl)-pyrimidine-4-carboxamide hydrochloride]",7.64
9,"C[C@@H]1C[C@H](N2C(=N)N[C@](C)(c3cccc(NC(=O)c4ccc(C#N)o4)c3Cl)CC2=O)CCO1 (relative stereo) [Example 115, N-(2-Chloro-3-{(4S)-2-imino-4-methyl-1-[(2R*,4R*)-2-methyl-tetrahydropyran-4-yl]-6-oxo-hexahydropyrimidin-4-yl]phenyl)-5-cyanofuran-2-carboxamide trifluoroacetic acid salt]",7.74
10,"C[C@@H]1C[C@H](N2C(=N)N[C@](C)(c3cccc(NC(=O)c4cccc(-n5ccnc5)c4)c3Cl)CC2=O)CCO1 (relative stereo) [Example 105, N-(2-Chloro-3-{(4S)-2-imino-4-methyl-1-[(2R*,4R*)-2-methyl-tetrahydropyran-4-yl]-6-oxo-hexahydropyrimidin-4-yl]phenyl)-3-(imidazol-1-yl)benzamide hydrochloride]",7.36
11,"C[C@@H]1C[C@H](N2C(=N)N[C@](C)(c3cccc(NC(=O)c4cnc5ccccc5c4)c3Cl)CC2=O)CCO1 (relative stereo) [Example 33, N-(2-Chloro-3-{(4S)-2-imino-4-methyl-1-[(2R*,4R*)-2-methyl-tetrahydropyran-4-yl]-6-oxo-hexahydropyrimidin-4-yl}phenyl)-quinoline-3-carboxamide trifluoroacetic acid salt]",7.27
12,"C[C@@H]1C[C@H](N2C(=N)N[C@](C)(c3cccc(NC(=O)c4ccc(C(F)(F)F)nc4)c3Cl)CC2=O)CCO1 (relative stereo) [Example 21, N-(2-Chloro-3-{(4S)-2-imino-4-methyl-1-[(2R*,4R*)-2-methyl-tetrahydropyran-4-yl]-6-oxo-hexahydropyrimidin-4-yl}phenyl)-6-(trifluoromethyl)pyridine-3-carboxamide hydrochloride]",6.64
13,"C[C@@H]1C[C@H](N2C(=N)N[C@](C)(c3cccc(NC(=O)c4cc(F)cc(F)c4)c3Cl)CC2=O)CCO1 (relative stereo) [Example 42, N-(2-Chloro-3-{(4S)-2-imino-4-methyl-1-[(2R*,4R*)-2-methyl-tetrahydropyran-4-yl]-6-oxo-hexahydropyrimidin-4-yl]phenyl)-3,5-difluorobenzamide trifluoroacetic acid salt]",7.38
14,"Cc1ccc(C(=O)Nc2cccc([C@]3(C)CC(=O)N([C@@H]4CCO[C@H](C)C4)C(=N)N3)c2Cl)nn1 (relative stereo) [Example 54, N-(2-Chloro-3-{(4S)-2-imino-4-methyl-1-[(2R*,4R*)-2-methyl-tetrahydropyran-4-yl]-6-oxo-hexahydropyrimidin-4-yl}phenyl)-6-methylpyridazine-3-carboxamide hydrochloride]",6.77
15,"C[C@@H]1C[C@H](N2C(=N)N[C@](C)(c3cccc(NC(=O)c4cccc(Cl)c4)c3Cl)CC2=O)CCO1 (relative stereo) [Example 11, 3-Chloro-N-(2-chloro-3-{(4S)-2-imino-4-methyl-1-[(2R*,4R*)-2-methyltetrahydropyran-4-yl]-6-oxo-hexahydropyrimidin-4-yl]phenyl)-benzamide hydrochloride]",8.05
16,"C[C@@H]1C[C@H](N2C(=N)N[C@](C)(c3cccc(NC(=O)c4ccc(Cl)cc4)c3Cl)CC2=O)CCO1 (relative stereo) [Example 9, 4-Chloro-N-(2-chloro-3-{(4S)-2-imino-4-methyl-1-[(2R*,4R*)-2-methyltetrahydropyran-4-yl]-6-oxo-hexahydropyrimidin-4-yl}phenyl)-benzamide hydrochloride]",7.28

# Same assay, conditions: Plasmodium falciparum, Erythrocyte; P. falciparum 3D7 in human erythrocytes, 72 h incubation, SYBR green fluorescence; read-out: IC50
row,Structure (SMILES),pIC50
1,"C[C@@H]1C[C@H](N2C(=N)N[C@](C)(c3cccc(NC(=O)c4nccn5ccnc45)c3Cl)CC2=O)CCO1 (relative stereo) [Example 48, N-(2-Chloro-3-{(4S)-2-imino-4-methyl-1-[(2R*,4R*)-2-methyl-tetrahydropyran-4-yl]-6-oxo-hexahydropyrimidin-4-yl}phenyl)-imidazo[1,2-alpyrazine-8-carboxamidetrifluoroacetic acid salt]",7.26
2,"C[C@@H]1C[C@H](N2C(=N)N[C@](C)(c3cccc(NC(=O)c4ccc[n+]([O-])c4)c3Cl)CC2=O)CCO1 (relative stereo) [Example 112, N-(2-Chloro-3-{(4S)-2-imino-4-methyl-1-[(2R*,4R*)-2-methyl-tetrahydropyran-4-yl]-6-oxo-hexahydropyrimidin-4-yl]phenyl)-1-oxidopyridin-1-ium-3-carboxamide hydrochloride]",6.15
